# US20240254129A1, “HETEROCYCLIC COMPOUNDS AND USES THEREOF” (Kumquat Biosciences Inc., priority 2021, published 2024)
# Key:
# [1] = biological target: GST-tagged K-Ras mutant / His-tagged hSOS1 (Homo sapiens, UniProt P01116); assay: HTRF assay, K-Ras mutant / SOS1 interaction; format: binding; details: compound nos. 401-703; read-out: IC50 against mutant Kras
# In short: (§1)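 GST-tagged K-Ras (mutant or wildtype) with anti-GST-Eu donor was mixed with His-hSOS1 and anti-6His-XL665 acceptor in HEPES pH 7.4 buffer with NaCl, DTT, BSA and Igepal. After ≥10 min, HTRF was read (ex 337 nm, em 620/665 nm); 665/620 ratios gave IC50 from duplicate dilution series.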
# [2] = biological target: T1, wildtype Kras / hSOS1 (Homo sapiens, UniProt P01116); assay: HTRF assay, wildtype Kras / SOS1 interaction; format: binding; details: compound nos. 401-703; read-out: IC50 against wildtype Kras
# T1 construct: made in house; host or cells: E. coli BL21 (DE3)
# T1 sequence (P01116 1-188 isoform P01116-2): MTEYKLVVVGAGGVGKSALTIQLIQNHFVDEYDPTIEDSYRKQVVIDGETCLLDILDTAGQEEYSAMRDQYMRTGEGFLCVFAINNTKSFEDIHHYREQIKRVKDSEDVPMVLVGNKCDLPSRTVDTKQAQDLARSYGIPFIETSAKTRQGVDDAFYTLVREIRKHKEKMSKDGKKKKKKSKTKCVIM
# In short: as §1
# GST-tagged K-Ras mutant / His-tagged hSOS1, sequence (P01116 whole entry G12D, form open): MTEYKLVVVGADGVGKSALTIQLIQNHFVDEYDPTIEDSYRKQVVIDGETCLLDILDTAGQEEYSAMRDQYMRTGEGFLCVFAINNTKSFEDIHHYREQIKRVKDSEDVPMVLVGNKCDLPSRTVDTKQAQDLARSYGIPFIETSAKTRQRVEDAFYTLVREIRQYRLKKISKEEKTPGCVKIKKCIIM
Structure (SMILES),IC50 [1] [µM],IC50 [2] [µM]
"Nc1ccc2cccc(-c3ccc4c(N5CC6CCC(C5)N6)nc(OCC56CCCN5CCC6)nc4c3F)c2n1 [Compound 596, 8-(4-(3,8-diazabicyclo-[3.2.1]octan-3-yl)-8-fluoro-2-((tetrahydro-1H-pyrrol-izin-7a(5H)-yl)methoxy)-quinazolin-7-yl)quinolin-2-amine]",> 0.5,> 0.5
"Nc1ccc2cccc(-c3c(Cl)cc4c(N5CC6CCC(C5)N6)nc(OCC56CCCN5CCC6)nc4c3F)c2n1 [Compound 597, 8-(4-(3,8-diazabicyclo-[3.2.1]octan-3-yl)-6-chloro-8-fluoro-2-((tetrahydro-1H-pyrrolizin-7a(5H)-yl)meth-oxy)quinazolin-7-yl)quin-olin-2-amine]",> 0.5,> 0.5
"Fc1c(Br)c(Cl)cc2c(N3CCNCC(F)(F)C3)nc(OCC34CCCN3CCC4)nc12 [Compound 599, 7-bromo-6-chloro-4-(6,6-difluoro-1,4-diazepan-1-yl)-8-fluoro-2-((tetrahydro-1H-pyrrolizin-7a(5H)-yl)meth-oxy)quinazoline]",> 0.5,> 0.5
"CN1CCC[C@H]1COc1nc(N2CCNCC(F)(F)C2)c2cc(Cl)c(-c3cccc4cnc(N)nc34)c(F)c2n1 [Compound 602, 6-chloro-4-(6,6-difluoro-1,4-diazepan-1-yl)-8-fluoro-2-(((S)-1-methylpyrrolidin-2-yl)methoxy)-[7,8′-biquin-azolin]-2′-amine]",> 0.5,> 0.5
"Fc1c(-c2ccccc2-c2ccccc2)c(Cl)cc2c(N3CCCCCC3)nc(OCC34CCCN3CCC4)nc12 [Compound 603, 7-([1,1′-biphenyl]-2-yl)-4-(azepan-1-yl)-6-chloro-8-fluoro-2-((tetrahydro-1H-pyrrolizin-7a(5H)-yl)meth-oxy)quinazoline]",> 0.5,> 0.5
"Nc1ccc2cccc(-c3c(Cl)cc4c(N5CC6CCC(C5)N6)nc(OC[C@@]56CCCN5C[C@H](F)C6)nc4c3F)c2n1 [Compound 606, 8-(4-(3,8-diazabicyclo-[3.2.1]octan-3-yl)-6-chloro-8-fluoro-2-(((2R,7aS)-2-fluorotetrahydro-1H-pyrrol-izin-7a(5H)-yl)methoxy)-quinazolin-7-yl)quinolin-2-amine]",> 0.5,> 0.5
"Nc1nc2c(-c3c(Cl)cc4c(N5CC6CCCC(C5)N6)nc(OC[C@@]56CCCN5C[C@H](F)C6)nc4c3F)ccc(F)c2s1 [Compound 607, 4-(4-(3,9-diazabicyclo-[3.3.1]nonan-3-yl)-6-chloro-8-fluoro-2-(((2R,7aS)-2-fluorotetrahydro-1H-pyrrol-izin-7a(5H)-yl)methoxy)-quinazolin-7-yl)-7-fluoro-benzo[d]thiazol-2-amine]",< 0.5,> 0.5
"Oc1cc(-c2ccc3c(N4CC5CCC(C4)N5)nc(OC[C@]45CCCN4C[C@@H](F)C5)nc3c2OCC(F)(F)F)c2ccccc2c1 [Compound 608, 4-(4-(3,8-diazabicyclo-[3.2.1]octan-3-yl)-2-(((2S,7aR)-2-fluorotetra-hydro-1H-pyrrolizin-7a(5H)-yl)methoxy)-8-(2,2,2-trifluoroethoxy)-quinazolin-7-yl)naph-thalen-2-ol]",> 0.5,> 0.5
"C#Cc1cccc2cc(O)cc(-c3ccc4c(N5CCNCC(F)(F)C5)nc(OC[C@@]56CCCN5C[C@H](F)C6)nc4c3F)c12 [Compound 609, 4-(4-(6,6-difluoro-1,4-diazepan-1-yl)-8-fluoro-2-(((2R,7aS)-2-fluorotetra-hydro-1H-pyrrolizin-7a(5H)-yl)methoxy)quin-azolin-7-yl)-5-ethynylnaph-thalen-2-ol]",< 0.5,> 0.5
"Cc1ccc2cn[nH]c2c1-c1c(Cl)cc2c(N3CC4CCC(C3)N4)nc(OC[C@@]34CCCN3C[C@H](F)C4)nc2c1F [Compound 611, 4-(3,8-diazabicyclo[3.2.1]-octan-3-yl)-6-chloro-8-fluoro-2-(((2R,7aS)-2-fluorotetrahydro-1H-pyrrol-izin-7a(5H)-yl)methoxy)-7-(6-methyl-1H-indazol-7-yl)-quinazoline]",> 0.5,> 0.5

# The next lines start with the values.
IC50 [1] [µM],IC50 [2] [µM],Structure (SMILES)
< 0.5,> 0.5,"CNCCCN1[C@@H]2CC[C@H]1CN(c1nc(OCC34CCCN3CCC4)nc3c(F)c(-c4ccc(F)c5sc(N)nc45)c(Cl)cc13)C2 [Compound 594, 4-(6-chloro-8-fluoro-4-((1R,5S)-8-(3-(methyl-amino)propyl)-3,8-diaza-bicyclo[3.2.1]octan-3-yl)-2-((tetrahydro-1H-pyrrol-izin-7a(5H)-yl)methoxy)-quinazolin-7-yl)-7-fluoro-benzo[d]thiazol-2-amine]"
< 0.5,> 0.5,"N#CCCc1cc2c(N3CC4CCC(C3)N4)nc(OC[C@@]34CCCN3C[C@H](F)C4)nc2c(F)c1-c1cc(O)cc2ccccc12 [Compound 595, 3-(4-(3,8-diazabicyclo-[3.2.1]octan-3-yl)-8-fluoro-2-(((2R,7aS)-2-fluorotetra-hydro-1H-pyrrolizin-7a(5H)-yl)methoxy)-7-(3-hydroxynaphthalen-1-yl)-quinazolin-6-yl)propane-nitrile]"
< 0.5,> 0.5,"N#Cc1c(N)sc2c(F)ccc(-c3c(Cl)cc4c(N5CCCOCC5)nc(OC[C@@]56CCCN5C[C@H](F)C6)nc4c3F)c12 [Compound 598, 2-amino-4-(6-chloro-8-fluoro-2-(((2R,7aS)-2-fluorotetrahydro-1H-pyrrol-izin-7a(5H)-yl)methoxy)-4-(1,4-oxazepan-4-yl)quin-azolin-7-yl)-7-fluorobenzo-[b]thiophene-3-carbonitrile]"
< 0.5,> 0.5,"Nc1nc2c(-c3c(Cl)cc4c(N5CCC[C@H](N)CC5)nc(OC[C@@]56CCCN5C[C@H](F)C6)nc4c3F)ccc(F)c2s1 [Compound 600, 4-(4-((S)-4-aminoazepan-1-yl)-6-chloro-8-fluoro-2-(((2R,7aS)-2-fluorotetra-hydro-1H-pyrrolizin-7a(5H)-yl)methoxy)quinazolin-7-yl)-7-fluorobenzo[d]thiazol-2-amine]"
< 0.5,> 0.5,"Nc1nc2c(-c3c(Cl)cc4c(N5CC6CCC(C5)N6)nc(OC[C@@]56CCCN5C[C@H](F)C6)nc4c3F)cc(Cl)cc2s1 [Compound 601, 4-(4-(3,8-diazabicyclo-[3.2.1]octan-3-yl)-6-chloro-8-fluoro-2-(((2R,7aS)-2-fluorotetrahydro-1H-pyrrol-izin-7a(5H)-yl)methoxy)-quinazolin-7-yl)-6-chloro-benzo[d]thiazol-2-amine]"
< 0.5,> 0.5,"Nc1nc2c(-c3c(Cl)cc4c(N5CCNC(=O)CC5)nc(OC[C@@]56CCCN5C[C@H](F)C6)nc4c3F)ccc(F)c2s1 [Compound 604, 1-(7-(2-amino-7-fluoroben-zo[d]thiazol-4-yl)-6-chloro-8-fluoro-2-(((2R,7aS)-2-fluorotetrahydro-1H-pyrrol-izin-7a(5H)-yl)methoxy)-quinazolin-4-yl)-1,4-diazepan-5-one]"
< 0.5,> 0.5,"N#Cc1c(N)sc2c(F)ccc(-c3c(Cl)cc4c(N5CC6CCC(C5)N6C5CCOC5)nc(OC[C@@]56CCCN5C[C@H](F)C6)nc4c3F)c12 (stereo partly drawn) [Compound 605, 2-amino-4-(6-chloro-8-fluoro-2-(((2R,7aS)-2-fluoro-tetrahydro-1H-pyrrolizin-7a(5H)-yl)methoxy)-4-((1R,5S)-8-(tetrahydro-furan-3-yl)-3,8-diazabicyclo-[3.2.1]octan-3-yl)quinazolin-7-yl)-7-fluorobenzo[b]thio-phene-3-carbonitrile]"
